Measured values: US20260207577A1, “METHODS OF USING FACTOR B INHIBITORS” (priority 2023, published 2026)

Tests used:
Type in all cases: in vivo, human
native C3G patients = test: Phase 2 study CLNP023X2202, proteinuria and renal function; details: native C3G patients (N=16), final dose levels of 200 mg b.i.d.
Procedure: (§1) The proposed iptacopan dose of 200 mg b.i.d. is considered appropriate based on data from the Phase 2 study, CLNP023X2202. […] Thus, the 200 mg b.i.d. dose of iptacopan appears to produce maximum changes in all of the complement biomarkers that have been evaluated to date in C3G patients.

[1] = test system: alternative complement pathway; test: Phase 2 study CLNP023X2202, complement biomarkers
Procedure: as §1

[2] = test system: native kidney C3G patients; test: Phase 2 study CLNP023X2202, safety and tolerability
Procedure: as §1

CCO[C@H]1CCN(Cc2c(OC)cc(C)c3[nH]ccc23)[C@H](c2ccc(C(=O)O)cc2)C1 [iptacopan, 4-((2S,4S)-(4-ethoxy-1-((5-methoxy-7-methyl-1H-indol-4-yl)methyl)piperidin-2-yl))benzoic acid]
renal function (SCR, CrCl, eGFR) (native C3G patients): stabilization of renal function | reduction in UPCR from baseline to Week 12 (native C3G patients; two-sided p=0.0003): 45% | C3 levels, dose dependence ([1]; 16 native C3G patients): increased dose-dependently | dose at which maximum decreases in plasma Bb, plasma sC5b-9 and urine sC5b-9 were obtained ([1]; 16 native C3G patients): 100 mg b.i.d. | dose at which maximum decreases in the Wieslab assay and increases in C3 were observed ([1]; 16 native C3G patients): 200 mg b.i.d. | sC5b-9, Bb, the Wieslab assay and urine sC5b-9, dose dependence ([1]; 16 native C3G patients): decreased dose-dependently | plasma Bb, plasma and urine sC5b-9 ([1]; Cohort A): reduction | Wieslab activity ([1]; at 200 mg b.i.d): full inhibition | serum C3 levels ([1]; both cohorts): overall normalization | inhibition of alternative complement pathway ([1]; both cohorts, upon iptacopan treatment): Dose-dependent, profound and sustained inhibition | changes in hematology, biochemistry, urinalysis, vital signs or ECG parameters ([2]; in vivo): no notable changes | discontinuations due to adverse events ([2]; in vivo): no definitive discontinuations due to adverse events | tolerability ([2]; in vivo): well tolerated without unexpected or new safety findings | deaths or serious adverse events during the treatment period ([2]; native kidney C3G patients): no deaths or serious adverse events were observed
